Reference: patent publication US7511074B2, “Tetrafluorobenzyl derivatives and pharmaceutical composition for preventing and treating acute and chronic neurodegenerative diseases in central nervous system containing the same” (AmKor Pharma, Inc., priority 2002, dated 2009)

Legend:
[1] = tested on: Mouse cortical cell cultures; assay: NMDA-induced excitotoxicity in mixed cortical cell cultures (LDH release); format: cell-based; conditions: 300 μM NMDA for 10 min, co-treatment; LDH release 24 hr later
Experimental: (§1) Mouse cortical cell cultures (DIV 12-14) were exposed to 300 μM NMDA for 10 min, alone or with inclusion of 3-300 μM 2-Hydroxy-TTBA. Neuronal death was analyzed 24 hr later by measuring levels of LDH released into the bathing medium, mean ±SEM (n=9-12 culture wells per condition), scaled to mean LDH efflux value 24 hr after sham wash (=0) and continuous exposure to 500 μM NMDA (=100) that causes near complete neuronal death. *, Significant difference from the vehicle control, p<0.05 using ANOVA and Student-Neuman-Keuls' test.
as §1, with “alone (□)” for “alone”, “2-Hydroxy-TTS (●), 2-Hydroxy-TTA (◯), 2-Ethan-TTBA (▾), 2-Propan-TTBA (∇), or 2-Cyclohexan-TTBA (▪).” for “2-Hydroxy-TTBA.”, “(=100).” for “(=100) that causes near complete neuronal death.”
(§2) For mixed neuron-glia culture, mouse cerebral cortices were removed from brains of the 14-16 day-old-fetal mice (E14-16), gently triturated and plated on 24 well plates (2×10^5 cells/plate) precoated with 100 μg/ml poly-D-lysine and 4 μg/ml laminine. […]

[2] = tested on: Mouse cortical cell cultures; assay: Zinc neurotoxicity in mixed cortical cell cultures (LDH assay); format: cell-based; conditions: 100 μM ZnCl2 for 30 min, concurrent treatment; LDH 24 hr later
Experimental: Mouse cortical cell cultures (DIV 12-14) were exposed to […] for 30 min, alone or with inclusion of 3-300 μM 2-Hydroxy-TTBA. Neuronal death was analyzed 24 hr later by measuring levels of LDH released into the bathing medium, mean ±SEM (n=9-12 culture wells per condition), scaled to mean LDH efflux value 24 hr after sham wash (=0) and continuous exposure to 500 μM NMDA (=100).
as §2, with “laminine. Cultures were maintained at 37° C. in a humidified 5% CO2 atmosphere.” for “laminine.”
After 7-8 days in vitro (DIV 7-8), 10 μM cytosine arabinofuranoside (Ara-C) was included to halt overgrowth of glia. […] Overall neuronal cell injury was assessed by measuring amount of lactate dehydrogenase (LDH) released into the bathing medium 24 hr after neurotoxic insults as previously described [Koh and Choi, J Neurosci Methods 20:83-90, 1987].
To induce zinc (Zn^2+) neurotoxicity, mixed cortical cell cultures were exposed to 100 μM ZnCl2 for 30 min in a HEPES-buffered control salt solution (HCSS): (in mM) 120 NaCl, 5 KCl, 1.6 MgCl2, 2.3 CaCl2, 15 glucose, 20 HEPES and 10 NaOH, alone or with 3-300 uM 2-Hydroxy-TTBA. […] Neuronal cell death was analyzed 24 hr later by LDH assay. […]

[3] = DPPH free radical scavenging assay; format: biochemical; conditions: 100 μM DPPH in ethanol; absorption at 517 nm; 1-100 μM
Experimental: 2-Hydroxy-TTBA (●) or trolox (◯) was reacted with 100 uM 1,1-diphenyl-2-picrylhydrazil (DPPH, a stable free radical) dissolved in ethanol for […]. The radical scavenging activity was determined by measuring the decrease in DPPH levels at 517 nm. *, Significant difference from the vehicle control, p<0.05 using ANOVA and Student-Neuman-Keuls' test.
2-Hydroxy-TTS (●), 2-Hydroxy-TTA (◯), 2-Chloro-TTP (▾) or control (∇) was reacted with 100 uM DPPH dissolved in ethanol. The radical scavenging activity was determined by measuring the decrease in DPPH levels at 517 nm. *, Significant difference from the vehicle control, p<0.05 using ANOVA and Student-Neuman-Keuls' test.
To examine the free radical scavenging effects, 1-100 μM 2-Hydroxy-TTBA, 2-Hydroxy-TTA, 2-Hydroxy-TTS, 2-Chloro-TTP or trolox was reacted with 100 μM DPPH (2,2-diphenyl-1-picryl-hydrazyl radical), a stable free radical, dissolved in ethanol. After incubation for 30 min, relative decrease in DPPH absorption at 517 nm was measured by a spectrophotometer, mean ±SEM (n=3 test tubes per condition). *, Significant difference from the vehicle control (DPPH alone), p<0.05 using ANOVA and Student-Neuman-Keuls' test.

Structure (SMILES): O=C(O)c1cc(NCc2c(F)c(F)c(C(F)(F)F)c(F)c2F)ccc1O [2-Hydroxy-TTBA, 2-hydroxy-5-(2,3,5,6-tetrafluoro-4-trifluoromethylbenzylamino)benzoic acid]
- doses at which NMDA-induced neuronal death was blocked/prevented [1]: 10 to 300 µM
- doses at which zinc-induced neuronal death was prevented [2]: 10 to 300 µM
- reduction of DPPH levels [3]: reduced levels of DPPH at lower doses
